Values after ≈ are worked out from the molar mass of the structure shown.
Assays:
Type in all cases: functional
Enterobacter hormaechei [1] = assay: Antibacterial activity against Enterobacter hormaechei isolate UCN62
Enterobacter cloacae [2] = assay: Antibacterial activity against Enterobacter cloacae UCN63 by broth microdilution method after 3 weeks of treatment; conditions: UCN63, 504 h
Enterobacter cloacae [3] = assay: Antibacterial activity against Enterobacter cloacae UCN63 by Etest after 3 weeks of treatment; conditions: UCN63, 504 h
Enterobacter cloacae [4] = assay: Antibacterial activity against Enterobacter cloacae UCN62 by broth microdilution method
Enterobacter cloacae [5] = assay: Antibacterial activity against Enterobacter cloacae UCN62 by Etest
Enterobacter hormaechei [6] = assay: Antibacterial activity against Enterobacter hormaechei isolate UCN63 after 3 weeks of treatment

| Molecule | MIC (Enterobacter hormaechei [1]) [µg/mL] | MIC (Enterobacter cloacae [2]) [µg/mL] | MIC (Enterobacter cloacae [3]) [µg/mL] | MIC (Enterobacter cloacae [4]) [µg/mL] | MIC (Enterobacter cloacae [5]) [µg/mL] | MIC (Enterobacter hormaechei [6]; isolate UCN63, 504 h) [µg/mL] | MIC (Enterobacter hormaechei [6]) [µg/mL] |
| --- | --- | --- | --- | --- | --- | --- | --- |
| CN(C)c1cc(NC(=O)CNC(C)(C)C)c(O)c2c1C[C@H]1C[C@H]3[C@H](N(C)C)C(O)=C(C(N)=O)C(=O)[C@@]3(O)C(O)=C1C2=O [TIGECYCLINE] | 2 (≈ 3.41 µM) | 4 (≈ 6.83 µM) | 3 (≈ 5.12 µM) | 2 (≈ 3.41 µM) | 1 (≈ 1.71 µM) | 4 (≈ 6.83 µM) |  |
| O=C(O)c1cn(C2CC2)c2cc(N3CCNCC3)c(F)cc2c1=O [CIPROFLOXACIN] | > 16 |  |  |  |  | > 16 |  |
| CO/N=C(\C(=O)N[C@@H]1C(=O)N2C(C(=O)O)=C(COC(C)=O)CS[C@H]12)c1csc(N)n1 [CEFOTAXIME] | > 64 |  |  |  |  | > 64 |  |
| C[C@@H](O)[C@H]1C(=O)N2C(C(=O)O)=C(SCCNC=N)C[C@H]12 [IMIPENEM ANHYDROUS] | 1 (≈ 3.34 µM) |  |  |  |  | 1 (≈ 3.34 µM) |  |
| NCC[C@H](O)C(=O)N[C@@H]1C[C@H](N)[C@@H](O[C@H]2O[C@H](CN)[C@@H](O)[C@H](O)[C@H]2O)[C@H](O)[C@H]1O[C@H]1O[C@H](CO)[C@@H](O)[C@H](N)[C@H]1O [AMIKACIN] | 4 (≈ 6.83 µM) |  |  |  |  | 8 (≈ 13.7 µM) |  |
| GENTAMICIN | > 32 |  |  |  |  |  | > 32 |
